Positions count from the first letter of the chain named. One block for each compound: values may come before it.
Columns and labels:
wild-type alpha-2CAR [1] = target: T1, wild-type alpha-2CAR (Homo sapiens, UniProt P18825); assay: Inhibition of forskolin stimulated adenylyl cyclase, CHO membranes; format: biochemical
T1 construct: expressed in transfected cells; membranes or intact cells
T1 sequence (P18825 1-462 L239R/S401I/R446P): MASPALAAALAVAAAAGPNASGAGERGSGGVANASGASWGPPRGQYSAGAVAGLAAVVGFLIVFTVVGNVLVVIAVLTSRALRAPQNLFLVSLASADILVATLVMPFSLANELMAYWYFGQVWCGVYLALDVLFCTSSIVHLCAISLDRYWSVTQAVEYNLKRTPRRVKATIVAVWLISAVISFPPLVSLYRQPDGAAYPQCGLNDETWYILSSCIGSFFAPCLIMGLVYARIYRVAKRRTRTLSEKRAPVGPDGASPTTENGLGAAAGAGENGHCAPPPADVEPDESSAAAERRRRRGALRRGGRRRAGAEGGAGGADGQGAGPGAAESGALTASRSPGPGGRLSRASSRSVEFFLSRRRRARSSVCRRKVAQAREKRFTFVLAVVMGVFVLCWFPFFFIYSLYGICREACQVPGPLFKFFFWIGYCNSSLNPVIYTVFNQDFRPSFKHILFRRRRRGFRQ

wild-type alpha-2BAR [2] = target: T2, wild-type alpha-2BAR (Homo sapiens, UniProt P18089); assay: Inhibition of forskolin stimulated adenylyl cyclase and desensitization, CHO membranes; format: biochemical; parameters: The human receptor consists of 450 amino acids; expressed in transfected cells
T2 sequence (P18089 1-450): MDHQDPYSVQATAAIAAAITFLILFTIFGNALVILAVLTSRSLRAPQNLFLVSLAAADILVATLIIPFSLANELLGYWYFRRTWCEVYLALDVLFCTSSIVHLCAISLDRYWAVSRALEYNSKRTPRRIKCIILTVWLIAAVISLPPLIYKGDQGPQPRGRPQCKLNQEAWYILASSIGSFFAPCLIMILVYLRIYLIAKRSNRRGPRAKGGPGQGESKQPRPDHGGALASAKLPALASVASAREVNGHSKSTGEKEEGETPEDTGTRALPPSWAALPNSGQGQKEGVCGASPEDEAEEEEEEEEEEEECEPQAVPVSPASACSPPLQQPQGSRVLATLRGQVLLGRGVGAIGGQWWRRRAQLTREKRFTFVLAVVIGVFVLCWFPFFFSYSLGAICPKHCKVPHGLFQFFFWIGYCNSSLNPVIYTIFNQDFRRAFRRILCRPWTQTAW
Method: For desensitization experiments, cells were pretreated for 30 min at 37° with media alone or with media containing 10 μM norepinephrine, placed on ice, and washed five times with cold PBS prior to membrane preparation. Desensitization of alpha-2BAR is manifested by a shift to the right in the dose-response curve for the inhibition of adenylyl cyclase (i.e., increase in EC50) without a significant change in the maximal response (17-19). To quantitate the magnitude of this desensitization, the inhibitory response under control conditions at a submaximal concentration of agonist (the EC50) in the assay was determined from the curve and compared to the response to this same concentration from membranes derived from cells exposed to norepinephrine. This method has been previously validated (26) in several G protein coupled receptor systems.

Lys251 alpha-2AAR [3] = target: T3, Lys251 alpha-2AAR (Homo sapiens, UniProt P08913, N266K); assay: [35S]GTPγS binding, membranes of COS-7 cells coexpressing Giα2; format: biochemical; parameters: expressed in transfected cells; membranes or intact cells; conditions: 10 μM agonist
T3 sequence (P08913 16-465 N266K): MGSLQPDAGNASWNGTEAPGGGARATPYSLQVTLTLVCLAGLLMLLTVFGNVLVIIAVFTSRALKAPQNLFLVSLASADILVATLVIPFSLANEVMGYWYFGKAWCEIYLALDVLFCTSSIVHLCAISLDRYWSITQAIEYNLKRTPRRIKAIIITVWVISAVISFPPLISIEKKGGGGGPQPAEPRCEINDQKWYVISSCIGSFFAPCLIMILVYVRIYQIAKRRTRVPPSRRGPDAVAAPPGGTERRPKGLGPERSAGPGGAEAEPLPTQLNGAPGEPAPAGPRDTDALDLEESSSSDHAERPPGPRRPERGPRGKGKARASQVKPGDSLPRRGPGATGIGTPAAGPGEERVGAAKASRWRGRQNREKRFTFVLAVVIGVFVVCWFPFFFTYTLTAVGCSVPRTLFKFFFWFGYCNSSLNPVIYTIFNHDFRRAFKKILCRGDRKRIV
Method: Receptor-G protein interaction was quantitated by [^35S] radiolabeled guanosine-5′-O-(3-thiotriphosphate) ([^35S]GTPγS) binding in COS-7 cells transiently transfected with each alpha-2AAR construct and Giα2. […] Nonspecific binding was measured in the presence of 10 μM GTPγS.

wild-type alpha-2CAR [4] = target: T4, wild-type alpha-2CAR (Homo sapiens, UniProt P18825, L239R/R446P/S401I); conditions: 10 μM epinephrine; thrombin 1 unit/ml
T4 sequence (P18825 1-462 L239R/S401I/R446P): T1 sequence (P18825 1-462 L239R/S401I/R446P)

wild-type alpha-2CAR [5] = target: T4, wild-type alpha-2CAR; assay: Inhibition of forskolin stimulated adenylyl cyclase, CHO membranes; format: biochemical; parameters: expressed in transfected cells; membranes or intact cells; conditions: lower expressing line 565±69 fmol/mg
wild-type alpha-2CAR [6] = target: T4, wild-type alpha-2CAR; conditions: 10 μM epinephrine, 5 min; 806±140 fmol/mg
wild-type alpha-2BAR [7] = target: T2, wild-type alpha-2BAR; conditions: read-out: [125I]-aminoclonidine saturation binding KD
Lys251 alpha-2AAR [8] = target: T3, Lys251 alpha-2AAR
[9] = target: T5, wild-type Asn251 alpha-2AAR (Homo sapiens, UniProt P08913); conditions: 5.0 μM forskolin, no agonist
T5 sequence (P08913 16-465): T3 sequence (P08913 16-465 N266K) with K251N

SMILES: Brc1c(NC2=NCCN2)ccc2nccnc12 [UK 14304]
enhanced [35S]GTPγS binding for Lys251 as compared to the Asn251 receptor (Lys251 alpha-2AAR [3]): ~40%

SMILES: CCN1CCc2nc(N)oc2CC1 [BHT-933]
enhanced [35S]GTPγS binding for Lys251 as compared to the Asn251 receptor (Lys251 alpha-2AAR [3]): 45%

SMILES: CNC[C@H](O)c1ccc(O)c(O)c1 [epinephrine]
MAP kinase stimulation as a percent of the thrombin response (wild-type alpha-2CAR [4]): 128±10.0%
inhibition of adenylyl cyclase (wild-type alpha-2CAR [5]): 73±2.4%
accumulation of inositol phosphates over basal (wild-type alpha-2CAR [6]): 30±3%

SMILES: Nc1cc(Cl)c(NC2=NCCN2)c(Cl)c1I [[^125I]-aminoclonidine, aminoclonidine]
Kd (wild-type alpha-2BAR [7]): 1.33 ± 0.12 nM

SMILES: C=C[C@@]1(C)CC(=O)[C@]2(O)[C@@]3(C)[C@@H](O)CCC(C)(C)[C@@H]3[C@H](O)[C@H](OC(C)=O)[C@@]2(C)O1 [Forskolin, forskolin]
Forskolin adenylyl cyclase activity (wild-type alpha-2BAR [2]; forskolin 5 μM, no agonist): 15.1 ± 0.9 pmol/min/mg
Forskolin adenylyl cyclase activity (Lys251 alpha-2AAR [8]; 5.0 μM forskolin, no agonist): 31.6 ± 6.5 pmol/min/mg
Forskolin adenylyl cyclase activity [9]: 32.7 ± 4.0 pmol/min/mg

Now from value to compound, other results behind:

EC50 (wild-type alpha-2CAR [1]): 219 ± 13.7 nM
enhanced [35S]GTPγS binding for Lys251 as compared to the Asn251 receptor (Lys251 alpha-2AAR [3]): ~40%
SMILES: NC[C@H](O)c1ccc(O)c(O)c1 [norepinephrine]
EC50 (wild-type alpha-2BAR [2]): 7.9 ± 2.1 nM
Max Inhibition (%) of forskolin stimulated adenylyl cyclase (wild-type alpha-2BAR [2]; 626±54 fmol/mg): 28.5 ± 1.6%
Desensitization (%) (wild-type alpha-2BAR [2]; after 10 μM norepinephrine 30 min): ~54%
Submax inhibition (%) Ctrl (wild-type alpha-2BAR [2]; agonist at the EC50 of control membranes, cells pretreated with media alone): 16.5 ± 3.9%
Submax inhibition (%) NE (wild-type alpha-2BAR [2]; same agonist concentration, cells pretreated with 10 μM norepinephrine 30 min): 7.6 ± 2.3 %

enhanced [35S]GTPγS binding for Lys251 as compared to the Asn251 receptor (Lys251 alpha-2AAR [3]): 72%
SMILES: N=C(N)N/N=C/c1c(Cl)cccc1Cl [guanabenz]

augmented function of Lys251 compared to the Asn251 receptor (Lys251 alpha-2AAR [8]; adenylyl cyclase inhibition): ~40%
SMILES: Cc1cc(C(C)(C)C)c(O)c(C)c1CC1=NCCN1 [oxymetazoline]

— patent US7041810B2, “Alpha-2 adrenergic receptor polymorphisms” (University Of Cincinnati, priority 2000, dated 2006)
